Test results from patent US20110262552A1, “Compositions Comprising Plant Extracts and Use Thereof for Treating Inflammation” (priority 2008, published 2011).

Columns and labels:
[1] = tested on: carrageenan-induced paw edema; assay: Carrageenin-induced acute inflammation (paw edema) in mice; format: in vivo, CD-1 mice; settings: oral; for % inhibition (hind paw edema): 1 h before intra-plantar carrageenan, edema 4 h after, compositions 1-4 250 mg/kg total, Aspirin 150, Phenylbutazone 30, Celebrex 10, Naproxen 30 mg/kg; for anti-inflammatory activity in carrageenan-induced paw edema assay: doses as in Table V
Description: Male CD-1 (Crl.) derived mice weighing 22±1 g were obtained from BioLasco Taiwan (under Charles River Laboratories Technology Licensee). All animals were housed in a controlled temperature (22° C.-24° C.) and humidity (60%-80%) environment with 12 hours light/dark cycles for at least one week prior to experimental use. The animals had free access to standard lab chow for mice (MF-18 (Oriental Yeast Co., Ltd., Japan) and Reverse Osmosis water was granted. All aspects of the study including housing, experimentation and disposal of animals were performed in general accordance with the Guide for the Care and Use of Laboratory Animals (National Academy Press, Washington, D.C., 1996). Groups of 5 CD-1 male mice were fasted overnight prior to use. The test substances were administered orally one hour before intra-plantar injection of the right hind paw with carrageenan (50 μl of 1% suspension).

[2] = tested on: Complete Freund's Adjuvant-induced arthritis (hind paw volume); assay: Adjuvant-induced arthritis in rats; format: in vivo, Lewis rats; settings: reference drugs oral once daily for 5 days: Phenylbutazone 35, Celebrex 10, Dexamethasone 5 mg/kg
Description: The study was conducted in male Lewis rats obtained from Charles River Japan, Inc. The animals were housed in a controlled temperature (21° C.-24° C.) and humidity (54%-68%) environment with 12 hour light/dark cycles for at least 1 week prior to use. Rats had Laboratory Rodent Diet MF-18 (Oriental Yeast Co., Ltd., Japan) and water (reverse osmosis purified water) ad libitum. The entire study and animal conditions and manipulations were conducted in accordance with the Guide for the Care and Use of Laboratory Animals (National Academy Press, Washington, D.C., 1996).
Eight groups of 5 rats weighing approximately 210±10 g were used. […] A dosing volume of 10 ml/kg was used. A well-ground suspension of killed Mycobacterium tuberculosis (0.3 mg in 0.1 ml of light mineral oil (CFA) was administered in a single dose into the subplantar region of the right hind paw 1 hour following the first dose of the test and reference compositions.
Right hind paw volume was measured 4 hours after single CFA injection (denoted day 1), and on day 5 (acute phase), while the left hind paw (without CFA) volume was measured on day 14 and 18 (delayed phase). Hind paw volume was measured by plethysmometer and water cell (25 mm diameter).

[3] = tested on: knee pain associated with arthrosis
From the text: A 10 year old Husky with a history of bilateral rupture of the cruciate ligament had bilateral knee surgery to correct this problem. The animal was also known to have zinc deficiency.
The dog was prescribed metacam for knee pain associated with arthrosis.

In the case of `CC(=O)Oc1ccccc1C(=O)O` [Aspirin], the “% inhibition (hind paw edema)” value [1] was 36% and the “anti-inflammatory activity in carrageenan-induced paw edema assay” value (“anti-inflammatory activity” for short) [1] was “significant anti-inflammatory activity”.
For `Cc1ccc(-c2cc(C(F)(F)F)nn2-c2ccc(S(N)(=O)=O)cc2)cc1` [Celebrex], the “% inhibition (hind paw edema)” value [1] was 23%, the “anti-inflammatory activity” value [1] was “significant anti-inflammatory activity” and the “% inhibition Day 14-0” value [2] was 20%. The “% inhibition Day 18-0” value [2] was 25% and the “% inhibition Day 18-14” value [2] was 30%.
`COc1ccc2cc([C@H](C)C(=O)O)ccc2c1` [Naproxen] was tested, and the “% inhibition (hind paw edema)” value [1] was 36% and the “anti-inflammatory activity” value [1] was “significant anti-inflammatory activity”.
In the case of `CCCCC1C(=O)N(c2ccccc2)N(c2ccccc2)C1=O` [Phenylbutazone], the “% inhibition (hind paw edema)” value [1] was 23%, the “% inhibition Day 14-0” value [2] was 18, 18, 18% and the “% inhibition Day 18-0” value [2] was 18, 18, 18%. The “% inhibition Day 18-14” value [2] was 18, 18, 18%.
In the case of `Cc1cnc(NC(=O)C2=C(O)c3ccccc3S(=O)(=O)N2C)s1` [metacam], the “pain control / pain relief (clinical examination)” value ([3]; 10 year old Husky, composition #8 1 gram per 10 kg body weight daily, a few weeks) was “only partially controlled” and the intolerance ([3]; dog, in vivo) was “signs of intolerance”.
